From ChEMBL document CHEMBL1201862, “PubChem BioAssay data set” (2004)
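Briefly, cells in 96-well plates were exposed to five compound concentrations for 48 h, and endpoints were estimated by linear interpolation. GI50 marks 50% less growth.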 The source made the active and inactive calls. No stated cut-off is given here; in the data, active = GI50 up to about 1.1 µM and inactive = higher.

Experiments:
Experiment in all cases: growth of human tumour cells (NCI), 48 h
[1] = tested on: A549
[2] = tested on: CCRF-CEM
[3] = tested on: HCC 2998
[4] = tested on: IGROV-1
[5] = tested on: KM12
[6] = tested on: M14
[7] = tested on: NCI-H460
[8] = tested on: OVCAR-3
[9] = tested on: OVCAR-8
[10] = tested on: RXF 393
[11] = tested on: SK-MEL-5
[12] = tested on: SN12C
[13] = tested on: SNB-19
[14] = tested on: UO-31
[15] = tested on: SNB-75

Measured: GI50

CNc1ccc(/C=C2\C=Cc3ccccc32)cc1
inactive: [1] 24 µM | [2] 43.4 µM | [3] 16.6 µM | [4] 24.2 µM | [5] 12.7 µM | [6] 16.3 µM | [7] 16.6 µM | [8] 21.2 µM | [9] 64.3 µM | [10] 20.8 µM | [11] 26.5 µM | [12] 29.9 µM | [13] 61.4 µM | [14] 10.2 µM

O=C(O)[C@H](NS(=O)(=O)c1ccc2ccccc2c1)c1ccccc1
inactive: [2] > 100 µM | [3] > 100 µM | [4] > 100 µM | [6] > 100 µM | [7] > 100 µM | [10] 20.6 µM | [12] > 100 µM | [13] > 100 µM | [15] > 100 µM | [14] > 100 µM

NNC(=S)N/N=C(\c1nc2ccc(Cl)cc2nc1O)C(O)c1cccc([N+](=O)[O-])c1 (stereo not given)
inactive: [1] > 100 µM | [2] > 52.5 µM | [3] > 100 µM | [4] > 100 µM | [5] > 100 µM | [6] > 53.5 µM | [7] > 75 µM | [8] > 100 µM | [9] > 100 µM | [10] > 94.4 µM | [11] > 100 µM | [12] 72.3 µM | [13] > 100 µM | [15] > 100 µM | [14] > 100 µM

CN(C)C(=S)/N=c1\ss/c(=N\C(=S)N(C)C)n1-c1ccc(Cl)cc1
inactive: [1] > 100 µM | [2] > 100 µM | [4] > 100 µM | [5] > 100 µM | [6] > 100 µM | [7] > 100 µM | [8] > 100 µM | [9] > 100 µM | [10] > 100 µM | [12] > 100 µM | [13] > 100 µM | [15] 3.33 µM | [14] > 100 µM

N#CCC(=O)N/N=C(\C(=O)Nc1ccc(Cl)c(Cl)c1)C1CN(c2ccccc2)N=C1N (stereo not given)
inactive: [1] > 100 µM | [2] 54 µM | [3] > 100 µM | [4] > 100 µM | [5] > 100 µM | [6] > 100 µM | [7] > 100 µM | [8] > 100 µM | [9] > 100 µM | [10] > 100 µM | [11] > 100 µM | [12] > 100 µM | [15] > 100 µM | [14] > 100 µM

CC1=CC(=O)C(C)(C2=NC(C)(C)CO2)c2ccccc21 (stereo not given)
inactive: [1] > 100 µM | [2] > 100 µM | [4] > 100 µM | [5] > 100 µM | [6] > 100 µM | [7] > 100 µM | [8] > 100 µM | [9] > 100 µM | [10] > 100 µM | [11] > 100 µM | [12] > 100 µM | [13] > 100 µM | [15] > 100 µM | [14] > 100 µM

Cc1ccccc1NC(=O)C(=O)C(C#N)c1ccccc1C (stereo not given)
inactive: [1] > 100 µM | [2] 30.4 µM | [3] > 100 µM | [4] > 100 µM | [5] > 100 µM | [6] > 100 µM | [7] 38.2 µM | [8] > 100 µM | [9] > 100 µM | [10] > 100 µM | [11] > 100 µM | [12] > 100 µM | [13] > 100 µM | [15] > 100 µM | [14] > 100 µM

COC(=O)N/N=C(\c1nc2ccc(Cl)cc2nc1O)C(O)c1ccc([N+](=O)[O-])cc1 (stereo not given)
inactive: [1] > 100 µM | [2] 89.7 µM | [3] > 100 µM | [4] > 100 µM | [5] > 100 µM | [6] > 100 µM | [7] > 100 µM | [8] > 100 µM | [9] > 100 µM | [10] > 100 µM | [11] > 100 µM | [12] > 100 µM | [13] > 100 µM | [15] > 100 µM | [14] > 100 µM

Cn1cc(C(=O)C2CCCCC2)ccc1=O
inactive: [1] > 100 µM | [2] > 100 µM | [3] > 100 µM | [4] > 100 µM | [5] > 100 µM | [6] > 100 µM | [7] > 100 µM | [8] > 100 µM | [9] > 100 µM | [10] > 100 µM | [11] > 100 µM | [12] > 100 µM | [13] > 100 µM | [15] > 100 µM | [14] > 100 µM

O=CC[C@H]1CCc2ccccc2C12CCC(=O)CC2
inactive: [1] 55.7 µM | [2] 39.8 µM | [3] > 100 µM | [4] > 100 µM | [5] 82.8 µM | [6] 86.3 µM | [7] > 100 µM | [8] > 100 µM | [9] > 100 µM | [11] 92.9 µM | [12] 67.8 µM | [13] 87.7 µM | [15] 52.8 µM | [14] 33.7 µM

O=C1C2C(C(=O)N1c1ccccc1)C1c3ccccc3C2C2C(=O)N(c3ccccc3)C(=O)C21 (stereo not given)
inactive: [1] 5.86 µM | [2] 4.9 µM | [3] 3.67 µM | [4] > 100 µM | [5] 6.1 µM | [6] 2.85 µM | [7] 3.71 µM | [8] 20.7 µM | [9] 7.08 µM | [10] 6.04 µM | [11] 4.44 µM | [12] 5.48 µM | [13] 6.27 µM | [15] 3.73 µM | [14] 12.7 µM

O=S1OC2(c3ccccc3-c3ccccc32)c2ccccc21 (stereo not given)
inactive: [1] > 100 µM | [2] 72.8 µM | [3] > 100 µM | [4] > 100 µM | [5] > 100 µM | [6] > 100 µM | [7] > 100 µM | [8] > 100 µM | [9] > 100 µM | [10] 53 µM | [11] > 100 µM | [12] > 100 µM | [13] > 100 µM | [15] > 100 µM | [14] > 100 µM

CC1(C)Oc2ccccc2N2O[C@@H]3C(=O)N(c4ccccc4)C(=O)[C@@H]3C21c1ccccc1 (stereo not given in full)
inactive: [1] 20.1 µM | [2] 27.7 µM | [3] > 100 µM | [4] 47.5 µM | [5] 30.6 µM | [6] 20.7 µM | [7] 28.9 µM | [8] 21.2 µM | [9] > 10 µM | [10] 23.7 µM | [11] 23 µM | [13] 19.7 µM | [15] 17.7 µM | [14] 66.1 µM

CCOC(=O)c1csc(CCCCCCc2nc(C(=O)OCC)cs2)n1
inactive: [1] > 45.6 µM | [2] > 42.3 µM | [3] > 100 µM | [4] > 100 µM | [5] > 100 µM | [6] > 100 µM | [7] 29.7 µM | [8] 99.5 µM | [9] 31.8 µM | [10] 31.6 µM | [11] 41.6 µM | [12] > 82.6 µM | [13] > 76.4 µM | [15] 21.1 µM | [14] > 100 µM

O=C1C2=C(c3ccccc31)C(c1ccccc1Cl)NC(S)=N2 (stereo not given)
inactive: [1] 85.1 µM | [2] 48.2 µM | [3] > 100 µM | [4] 56.8 µM | [5] 44.5 µM | [6] 51.8 µM | [7] 72.8 µM | [8] 38.1 µM | [9] 53 µM | [11] 20.2 µM | [12] 41.3 µM | [13] 52.1 µM | [15] 26.9 µM | [14] 30.6 µM

COC(=O)c1oc([N+](=O)[O-])c(-c2ccccc2)c1-c1ccccc1
inactive: [1] > 100 µM | [2] 67.9 µM | [3] > 100 µM | [4] > 100 µM | [5] > 100 µM | [6] > 100 µM | [7] > 100 µM | [8] > 100 µM | [9] > 100 µM | [11] 48.3 µM | [12] > 100 µM | [13] > 100 µM | [15] > 100 µM | [14] > 100 µM

N#Cc1c(N)c(C(=O)O)nn(-c2cccc(C(F)(F)F)c2)c1=O
inactive: [1] > 100 µM | [2] > 100 µM | [4] > 100 µM | [5] > 100 µM | [6] > 100 µM | [7] > 100 µM | [8] > 100 µM | [9] > 100 µM | [10] 52.5 µM | [11] 53 µM | [12] > 100 µM | [13] > 100 µM | [15] 14 µM | [14] 76.7 µM

C=CCn1c2c(sc1=S)C(S)NC=N2 (stereo not given)
inactive: [1] 69 µM | [2] 95.9 µM | [3] 26.5 µM | [4] 88.5 µM | [5] > 100 µM | [6] > 100 µM | [7] > 100 µM | [8] 94.2 µM | [9] > 100 µM | [10] > 100 µM | [11] 54.5 µM | [12] > 100 µM | [13] 99.8 µM | [15] > 100 µM | [14] 34.1 µM

C=C1C(=O)OC2/C=C(\C=O)CC/C=C(\C)C(O)C[C@@H]12 (stereo not given in full)
inactive: [1] 16.1 µM | [2] 2.57 µM | [3] 17.8 µM | [4] 17.5 µM | [5] 5.77 µM | [6] 3.36 µM | [7] 13.3 µM | [8] 9.46 µM | [9] 3.17 µM | [10] 2.84 µM | [11] 9.27 µM | [12] 7.52 µM | [13] 15.4 µM | [15] 15.1 µM | [14] 13.3 µM
